Experimental data from patent US9487489B2, “Halogen-substituted pyrazole derivatives as pest-control agents” (BAYER CROPSCIENCE AKTIENGESELLSCHAFT, priority 2013, dated 2016).
Where “and” joins values, the source holds several entries; their conditions need not be identical. Equal entries are not always repeated.

Tests used:
[1] = logP determination by HPLC on a reversed-phase column (C18), EEC Directive 79/831 Annex V.A8; format: physicochemical
In short: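 Retention on a C18 reversed-phase column (Zorbax Eclipse Plus, 1.8 micron) was used, eluting with acetonitrile/water, each containing formic acid. The gradient ran from 10% to 95% acetonitrile over 4.25 min, then held 1.25 min, at 55° C and 2.0 ml/min, with MS detection.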

[2] = test system: cattle ticks (Boophilus microplus) Parkhurst strain, SP-resistant; assay: Boophilus microplus dip test (BOOPMI Dip); format: in vivo; conditions: application rate 100 ppm, assessed after 7 days
Method: B. Boophilus microplus-dip Test (BOOPMI Dip)
Test animals: cattle ticks (Boophilus microplus) Parkhurst strain, SP-resistant
Solvent: dimethyl sulphoxide
10 mg of active compound are dissolved in 0.5 ml of dimethyl sulphoxide. For the purpose of preparing a suitable formulation, the active compound solution is diluted with water to the concentration desired in each case.
This active compound preparation is pipetted into tubes. 8-10 adult engorged female cattle ticks (Boophilus microplus) are transferred into a further tube with holes. The tube is immersed into the active compound formulation, and all ticks are completely wetted. After the liquid has run out, the ticks are transferred on filter discs into plastic dishes and stored in a climate-controlled room.
The activity is assessed after 7 days by laying of fertile eggs. Eggs whose fertility is not visible from the outside are stored in a climate-controlled cabinet until the larvae hatch after about 42 days. An efficacy of 100% means that none of the ticks has laid any fertile eggs; 0% means that all eggs are fertile.

[3] = test system: engorged adult female cattle ticks (Boophilus microplus); assay: Boophilus microplus injection test (BOOPMI Inj); format: in vivo; conditions: application rate 20 μg/animal; injection into abdomen; assessed after 7 days
In short: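 DMSO solution of compound (1 μl) injected into the abdomen of 5 engorged adult female ticks, which are then held in a climate-controlled room. After 7 days, efficacy is scored from laying of fertile eggs, with unclear eggs kept until larval hatch (~42 days); 100% means no fertile eggs, 0% all fertile.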

[4] = test system: adult cat fleas (Ctenocephalides felis); assay: Ctenocephalides felis oral test (CTECFE); format: in vivo; conditions: application rate 100 ppm in citrated cattle blood; after 2 days
In short: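 About 20 unfed adult cat fleas fed through parafilm membrane on citrated cattle blood containing compound (DMSO stock diluted in blood to test concentration). Kill % scored after 2 days (100% = all fleas dead).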

[5] = test system: L1 larvae of the Australian sheep blowfly (Lucilia cuprina); assay: Lucilia cuprina test (LUCICU); format: in vivo; conditions: application rate 100 ppm; after 2 days
In short: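 About 20 L1 larvae placed in a vessel with minced horsemeat plus compound (DMSO concentrate diluted with water to the desired concentration). Kill in % scored after 2 days, 100% meaning all larvae dead.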

[6] = test system: adult houseflies (Musca domestica); assay: Musca domestica test (MUSCDO); format: in vivo; conditions: application rate 100 ppm; after 2 days
In short: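 Compound dissolved in DMSO and diluted with water to the test concentration, applied with sugar solution on a sponge; 10 adult houseflies per vessel. Mortality scored after 2 days as % kill (100% all dead, 0% none).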

[7] = test system: green peach aphid (Myzus persicae); assay: Myzus persicae spray test (MYZUPE); format: in vivo; conditions: Chinese cabbage leaf discs, after 6 days
In short: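 Chinese cabbage leaf discs infested with all aphid stages sprayed with compound in acetone/DMF with alkylaryl polyglycol ether emulsifier in water. Efficacy (% aphids killed; 100% all dead, 0% none) scored after 6 days.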

[8] = test system: larvae of the mustard beetle (Phaedon cochleariae); assay: Phaedon cochleariae spray test (PHAECO); format: in vivo; conditions: Chinese cabbage leaf discs, after 7 days
In short: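 Compound dissolved in acetone/dimethylformamide with alkylaryl polyglycol ether emulsifier, made up in water containing 1000 ppm emulsifier, then diluted to test concentrations and sprayed against mustard beetle larvae. Efficacy (% larvae killed) scored after 7 days.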

[9] = test system: caterpillars of the armyworm (Spodoptera frugiperda); assay: Spodoptera frugiperda spray test (SPODFR); format: in vivo; conditions: maize leaf discs, after 7 days
In short: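 Maize leaf discs sprayed with compound in acetone/DMF with alkylaryl polyglycol ether emulsifier (1000 ppm) in water, dried, then infested with armyworm caterpillars. Mortality (%) scored after 7 days; 100% = all caterpillars killed, 0% = none killed.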

[10] = test system: greenhouse red spider mite (Tetranychus urticae); assay: Tetranychus urticae spray test, OP-resistant (TETRUR); format: in vivo; conditions: bean leaf discs, after 6 days
In short: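 Bean leaf discs carrying all stages of OP-resistant Tetranychus urticae were sprayed with compound formulated in acetone/dimethylformamide and diluted in water with 1000 ppm alkylaryl polyglycol ether emulsifier. Mortality (% efficacy, 100% = all mites killed) scored after 6 days.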

[11] = test system: adult cat fleas (Ctenocephalides felis); assay: Ctenocephalides felis in vitro contact test with adult cat fleas (T1); conditions: after 48 h
In short: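 Test compound was dissolved in acetone p.a. (9 mg per 1 ml) and diluted as needed. 250 μl was spread evenly over the inner walls and floor of a 25 ml test tube by rotating on an orbital shaker for 2 h at 30 rpm. Once the solvent evaporated, 5-10 adult Ctenocephalides felis were added. Tubes were capped with a perforated plastic lid and kept horizontal at room temperature and ambient humidity.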

[12] = test system: bont tick nymphs (Amblyomma hebraeum); conditions: after 48 h
[13] = test system: adult dog ticks (Rhipicephalus sanguineus); assay: Rhipicephalus sanguineus in vitro contact test with adult brown dog ticks (T2); conditions: after 48 h
In short: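 Acetone solutions coated onto test tube walls and floor, giving 5 μg/cm^2 at 900 ppm. Five to ten adult ticks held per tube in the dark at room temperature for 48 h, then heated at 45-50° C for up to 5 min; efficacy is the percentage of dead or moribund ticks unable to climb away.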

[14] = HPLC on reversed-phase column (C18), acetonitrile/water with formic acid, EEC Directive 79/831 Annex V.A8

| Compound | logP ([1]; HPLC, reversed-phase C18, acetonitrile (0.1% formic acid)/water (0.09% formic acid) gradient) | efficacy (laying of fertile eggs) [2] | efficacy (laying of fertile eggs) [3] | efficacy (kill in %) [4] | efficacy (kill in %) [5] | efficacy (kill in %) [6] | efficacy in % ([7]; application rate 100 g/ha) | efficacy in % ([8]; application rate 100 g/ha) | efficacy in % ([9]; application rate 100 g/ha) | efficacy in % ([10]; application rate 100 g/ha) | efficacy (dead or moribund fleas) ([11]; application rate 1 μg/cm^2) | efficacy (dead or moribund fleas) ([11]; application rate 5 μg/cm^2) | efficacy (dead or moribund ticks) [12] | logP [1, 14] | efficacy (dead or moribund ticks) ([13]; application rate 1 μg/cm^2) | efficacy (dead or moribund ticks) ([13]; application rate 5 μg/cm^2) | efficacy in % ([7]; application rate 500 g/ha) | efficacy in % ([8]; application rate 500 g/ha) | efficacy in % ([9]; application rate 500 g/ha) | efficacy in % ([10]; application rate 500 g/ha) |
| --- | --- | --- | --- | --- | --- | --- | --- | --- | --- | --- | --- | --- | --- | --- | --- | --- | --- | --- | --- | --- |
| Cn1nc(C(F)(F)C(F)(F)F)c(C(F)(F)F)c1-n1cnc(-c2ccc(Cl)c(C(=O)NC3(C#N)CC3)c2)c1 [Ib-2] | 3.38 | 100% | 100% | 100% | 100% | 100% | 90% | 100% | 100% | 100% | 100% | 100% | 100% | – | – | – | – | – | – | – |
| Cn1nc(C(F)(F)C(F)(F)F)c(C(F)(F)F)c1-n1cc(-c2ccc(Cl)c(C(=O)NCc3ccccc3)c2)cn1 [Ic-3] | – | – | 100% | 100% | 100% | 100% | – | 100% | 100% | 90% | – | – | 100% and 80% | 4.39 | – | – | – | – | – | – |
| Cn1nc(C(F)(F)C(F)(F)F)c(C(F)(F)F)c1-n1cc(-c2cccc(C(=O)NC3(C#N)CC3)c2)cn1 [Ic-19] | – | – | 100% | 100% | 100% | 100% | – | 100% | 100% | 100% | 100% | 100% | 100% | 3.61 | 100% | 80% | – | – | – | – |
| Cn1nc(C(F)(F)C(F)(F)F)c(C(F)(F)F)c1-n1cc(-c2ccc(Cl)c(C(=O)NC3(C(F)(F)F)CC3)c2)cn1 [Ic-32] | – | – | 100% | 100% | 100% | 100% | – | 100% | 100% | 100% | – | 80% | 100% | 4.29 | 80% | – | – | – | – | – |
| Cn1nc(C(F)(F)C(F)(F)F)c(C(F)(F)F)c1-n1cc(-c2ccc(Cl)c(C(=O)NCCF)c2)cn1 [Ic-77] | – | 100% | 100% | 100% | 100% | 100% | 100% | – | 100% | 100% | 100% | 100% | – | 3.67 | 100% | 100% | – | – | – | – |
| CNC(=O)C1(N(C)C(=O)c2cc(-c3cnn(-c4c(C(F)(F)F)c(C(F)(F)C(F)(F)F)nn4C)c3)ccc2Cl)CC1 [Ic-97] | – | 90% | 100% | 100% | 100% | 100% | – | – | – | – | 100% | 100% | – | 3.58 | – | – | 100% | 100% | 100% | 100% |
| Cn1nc(C(F)(F)C(F)(F)F)c(C(F)(F)F)c1-n1cc(-c2ccc(Cl)c(C(=O)NCC#N)c2)cn1 [Ic-147] | – | 100% | 100% | 100% | 100% | 100% | 90% | – | – | – | 100% | 100% | – | – | 80% | – | 100% | 100% | 100% | 100% |
| Cn1nc(C(F)(F)C(F)(F)F)c(C(F)(F)F)c1-n1cc(-c2ccc(Cl)c(C(=O)NCC3CC3)c2)cn1 [Ic-153] | – | 100% | 100% | 100% | 100% | 100% | – | – | – | – | 100% | 100% | – | – | 80% | 80% | 90% | 100% | 100% | 100% |
| Cn1nc(C(F)(F)C(F)(F)F)c(C(F)(F)F)c1-n1cc(-c2ccc(Cl)c(C(=O)N[C@@H]3CCOC3)c2)cn1 [Ic-164] | – | 100% | 100% | 100% | 100% | 90% | – | – | – | – | 100% | 100% | – | – | 100% | 100% | 90% | 100% | 100% | 100% |
| Cn1cc(NC(=O)c2cc(-c3cnn(-c4c(C(F)(F)F)c(C(F)(F)C(F)(F)F)nn4C)c3)ccc2Cl)cn1 [Ic-166] | – | 100% | 100% | 100% | 100% | 100% | – | – | – | – | 100% | 100% | – | – | 100% | 100% | 90% | 100% | 100% | 100% |
